Measured values published in article PMC5097156, “Potent and selective chemical probe of hypoxic signalling downstream of HIF-α hydroxylation via VHL inhibition” (Nature Communications, 2016).

Key:
Assay in all cases: biochemical
AMPK (hum) = target: T1, AMPK (hum) (Homo sapiens, UniProt Q13131); set-up: Dundee MRC-PPU Express kinase screen, remaining kinase activity; conditions: read-out: Mean % of remaining kinase activity (±sd)
T1 construct: gene PRKAA1

Aurora B = target: T2, Aurora B (Homo sapiens, UniProt Q96GD4); set-up: Dundee MRC-PPU Express kinase screen, remaining kinase activity; conditions: read-out: Mean % of remaining kinase activity (±sd)
T2 construct: gene AURKB

BTK = BTK (Homo sapiens, UniProt Q06187); set-up: Dundee MRC-PPU Express kinase screen, remaining kinase activity; conditions: read-out: Mean % of remaining kinase activity (±sd)
CAMKKb = target: T3, CAMKKb (Homo sapiens, UniProt Q96RR4); set-up: Dundee MRC-PPU Express kinase screen, remaining kinase activity; conditions: read-out: Mean % of remaining kinase activity (±sd)
T3 construct: gene CAMKK2

EPH-A2 = target: T4, EPH-A2 (Homo sapiens, UniProt P29317); set-up: Dundee MRC-PPU Express kinase screen, remaining kinase activity; conditions: read-out: Mean % of remaining kinase activity (±sd)
T4 construct: gene EPHA2

GSK3b = GSK3b (Homo sapiens, UniProt P49841); set-up: Dundee MRC-PPU Express kinase screen, remaining kinase activity; conditions: read-out: Mean % of remaining kinase activity (±sd)
IGF-1R = target: T5, IGF-1R (Homo sapiens, UniProt P08069); set-up: Dundee MRC-PPU Express kinase screen, remaining kinase activity; conditions: read-out: Mean % of remaining kinase activity (±sd)
T5 construct: gene IGF1R

IRAK4 = IRAK4 (Homo sapiens, UniProt Q9NWZ3); set-up: Dundee MRC-PPU Express kinase screen, remaining kinase activity; conditions: read-out: Mean % of remaining kinase activity (±sd)
LKB1 = target: T6, LKB1 (Homo sapiens, UniProt Q15831); set-up: Dundee MRC-PPU Express kinase screen, remaining kinase activity; conditions: read-out: Mean % of remaining kinase activity (±sd)
T6 construct: gene STK11

Lck = Lck (Homo sapiens, UniProt P06239); set-up: Dundee MRC-PPU Express kinase screen, remaining kinase activity; conditions: read-out: Mean % of remaining kinase activity (±sd)
MKK1 = target: T7, MKK1 (Homo sapiens, UniProt Q02750); set-up: Dundee MRC-PPU Express kinase screen, remaining kinase activity; conditions: read-out: Mean % of remaining kinase activity (±sd)
T7 construct: gene MAP2K1

MSK1 = target: T8, MSK1 (Homo sapiens, UniProt O75582); set-up: Dundee MRC-PPU Express kinase screen, remaining kinase activity; conditions: read-out: Mean % of remaining kinase activity (±sd)
T8 construct: gene RPS6KA5

MST2 = target: T9, MST2 (Homo sapiens, UniProt Q13188); set-up: Dundee MRC-PPU Express kinase screen, remaining kinase activity; conditions: read-out: Mean % of remaining kinase activity (±sd)
T9 construct: gene STK3

PDK1 = target: T10, PDK1 (Homo sapiens, UniProt O15530); set-up: Dundee MRC-PPU Express kinase screen, remaining kinase activity; conditions: read-out: Mean % of remaining kinase activity (±sd)
T10 construct: gene PDPK1

PKBa = target: T11, PKBa (Homo sapiens, UniProt P31749); set-up: Dundee MRC-PPU Express kinase screen, remaining kinase activity; conditions: read-out: Mean % of remaining kinase activity (±sd)
T11 construct: gene AKT1

PKD1 = target: T12, PKD1 (Homo sapiens, UniProt Q15139); set-up: Dundee MRC-PPU Express kinase screen, remaining kinase activity; conditions: read-out: Mean % of remaining kinase activity (±sd)
T12 construct: gene PRKD1

PLK1 = PLK1 (Homo sapiens, UniProt P53350); set-up: Dundee MRC-PPU Express kinase screen, remaining kinase activity; conditions: read-out: Mean % of remaining kinase activity (±sd)
SYK = SYK (Homo sapiens, UniProt P43405); set-up: Dundee MRC-PPU Express kinase screen, remaining kinase activity; conditions: read-out: Mean % of remaining kinase activity (±sd)
TAK1 = target: T13, TAK1 (Homo sapiens, UniProt O43318); set-up: Dundee MRC-PPU Express kinase screen, remaining kinase activity; conditions: read-out: Mean % of remaining kinase activity (±sd)
T13 construct: gene MAP3K7

TBK1 = TBK1 (Homo sapiens, UniProt Q9UHD2); set-up: Dundee MRC-PPU Express kinase screen, remaining kinase activity; conditions: read-out: Mean % of remaining kinase activity (±sd)
TTK = TTK (Homo sapiens, UniProt P33981); set-up: Dundee MRC-PPU Express kinase screen, remaining kinase activity; conditions: read-out: Mean % of remaining kinase activity (±sd)
5-HT6 (h) = target: T14, 5-HT6 (h) (Homo sapiens, UniProt P50406); set-up: CEREP ExpresSProfile competition binding, remaining control specific binding of reference compound; conditions: radioligand binding; read-out: Mean % of control specific binding (±sd)
T14 construct: gene HTR6

CB1 (h) = target: T15, CB1 (h) (Homo sapiens, UniProt P21554); set-up: CEREP ExpresSProfile competition binding, remaining control specific binding of reference compound; conditions: radioligand binding; read-out: Mean % of control specific binding (±sd)
T15 construct: gene CNR1

D1 (h) = target: T16, D1 (h) (Homo sapiens, UniProt P21728); set-up: CEREP ExpresSProfile competition binding, remaining control specific binding of reference compound; conditions: radioligand binding; read-out: Mean % of control specific binding (±sd)
T16 construct: gene DRD1

H2 (h) = target: T17, H2 (h) (Homo sapiens, UniProt P25021); set-up: CEREP ExpresSProfile competition binding, remaining control specific binding of reference compound; conditions: radioligand binding; read-out: Mean % of control specific binding (±sd)
T17 construct: gene HRH2

NTS1 (NT1) (h) = target: T18, NTS1 (NT1) (h) (Homo sapiens, UniProt P30989); set-up: CEREP ExpresSProfile competition binding, remaining control specific binding of reference compound; conditions: radioligand binding; read-out: Mean % of control specific binding (±sd)
T18 construct: gene NTSR1

delta (DOP) (h) = target: T19, delta (DOP) (h) (Homo sapiens, UniProt P41143); set-up: CEREP ExpresSProfile competition binding, remaining control specific binding of reference compound; conditions: radioligand binding; read-out: Mean % of control specific binding (±sd)
T19 construct: gene OPRD1
T19 sequence (P41143 whole entry): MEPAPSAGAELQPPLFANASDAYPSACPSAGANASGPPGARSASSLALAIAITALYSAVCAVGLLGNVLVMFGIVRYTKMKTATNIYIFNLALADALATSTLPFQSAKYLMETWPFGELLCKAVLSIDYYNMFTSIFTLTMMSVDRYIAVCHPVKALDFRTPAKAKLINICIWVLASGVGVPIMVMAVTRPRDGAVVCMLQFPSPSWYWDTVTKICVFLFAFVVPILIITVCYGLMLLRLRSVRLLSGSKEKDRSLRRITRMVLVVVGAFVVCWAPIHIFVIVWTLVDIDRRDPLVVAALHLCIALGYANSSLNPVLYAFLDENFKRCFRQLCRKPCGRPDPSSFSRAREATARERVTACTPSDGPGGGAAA

T2 sequence (Q96GD4 whole entry): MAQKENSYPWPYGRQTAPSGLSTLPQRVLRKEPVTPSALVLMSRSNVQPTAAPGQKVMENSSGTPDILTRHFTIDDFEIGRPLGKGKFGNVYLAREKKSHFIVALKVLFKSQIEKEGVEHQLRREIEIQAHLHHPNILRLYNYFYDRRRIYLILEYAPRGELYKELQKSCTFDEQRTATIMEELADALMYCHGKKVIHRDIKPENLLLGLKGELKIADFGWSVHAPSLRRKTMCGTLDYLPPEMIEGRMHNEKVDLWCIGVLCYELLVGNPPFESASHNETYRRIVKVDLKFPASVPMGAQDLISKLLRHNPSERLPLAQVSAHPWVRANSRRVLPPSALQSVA
Sequence of GSK3b (P49841 whole entry): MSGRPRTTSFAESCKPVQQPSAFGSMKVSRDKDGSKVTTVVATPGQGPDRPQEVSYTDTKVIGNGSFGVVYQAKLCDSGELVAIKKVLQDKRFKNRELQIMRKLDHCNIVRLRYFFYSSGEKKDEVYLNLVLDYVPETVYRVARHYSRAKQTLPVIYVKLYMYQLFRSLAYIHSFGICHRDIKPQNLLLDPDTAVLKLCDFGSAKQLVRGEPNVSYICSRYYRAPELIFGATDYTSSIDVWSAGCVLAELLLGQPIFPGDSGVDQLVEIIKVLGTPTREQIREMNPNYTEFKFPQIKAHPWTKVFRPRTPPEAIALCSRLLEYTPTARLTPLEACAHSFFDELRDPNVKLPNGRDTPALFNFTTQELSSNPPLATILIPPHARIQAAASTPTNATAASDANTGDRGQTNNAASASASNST
T4 sequence (P29317 whole entry): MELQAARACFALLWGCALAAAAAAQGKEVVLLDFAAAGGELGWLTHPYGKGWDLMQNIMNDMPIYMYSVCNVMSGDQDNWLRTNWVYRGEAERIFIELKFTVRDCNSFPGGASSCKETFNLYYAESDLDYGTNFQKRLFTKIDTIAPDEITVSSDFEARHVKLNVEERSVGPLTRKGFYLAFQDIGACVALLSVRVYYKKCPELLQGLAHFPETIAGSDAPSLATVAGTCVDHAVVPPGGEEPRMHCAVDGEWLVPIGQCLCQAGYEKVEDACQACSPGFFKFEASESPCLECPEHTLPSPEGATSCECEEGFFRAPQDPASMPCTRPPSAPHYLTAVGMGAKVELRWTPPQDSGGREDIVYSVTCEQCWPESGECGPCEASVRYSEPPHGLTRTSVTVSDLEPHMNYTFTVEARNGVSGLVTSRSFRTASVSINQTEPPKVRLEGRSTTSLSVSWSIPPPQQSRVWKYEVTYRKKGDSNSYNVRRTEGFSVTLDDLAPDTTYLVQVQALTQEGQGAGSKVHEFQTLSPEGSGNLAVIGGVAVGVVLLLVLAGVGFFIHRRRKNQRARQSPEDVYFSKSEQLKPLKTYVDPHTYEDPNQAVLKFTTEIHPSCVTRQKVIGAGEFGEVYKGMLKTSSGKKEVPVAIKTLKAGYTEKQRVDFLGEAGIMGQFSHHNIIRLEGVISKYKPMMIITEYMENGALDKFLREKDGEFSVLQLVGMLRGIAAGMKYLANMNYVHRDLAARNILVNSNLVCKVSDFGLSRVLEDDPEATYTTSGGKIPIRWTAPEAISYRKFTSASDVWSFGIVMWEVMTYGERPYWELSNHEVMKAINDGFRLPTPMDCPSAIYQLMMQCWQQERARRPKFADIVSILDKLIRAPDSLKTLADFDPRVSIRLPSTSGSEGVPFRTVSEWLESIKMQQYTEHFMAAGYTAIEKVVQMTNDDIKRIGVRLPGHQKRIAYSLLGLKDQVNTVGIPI
T12 sequence (Q15139 whole entry): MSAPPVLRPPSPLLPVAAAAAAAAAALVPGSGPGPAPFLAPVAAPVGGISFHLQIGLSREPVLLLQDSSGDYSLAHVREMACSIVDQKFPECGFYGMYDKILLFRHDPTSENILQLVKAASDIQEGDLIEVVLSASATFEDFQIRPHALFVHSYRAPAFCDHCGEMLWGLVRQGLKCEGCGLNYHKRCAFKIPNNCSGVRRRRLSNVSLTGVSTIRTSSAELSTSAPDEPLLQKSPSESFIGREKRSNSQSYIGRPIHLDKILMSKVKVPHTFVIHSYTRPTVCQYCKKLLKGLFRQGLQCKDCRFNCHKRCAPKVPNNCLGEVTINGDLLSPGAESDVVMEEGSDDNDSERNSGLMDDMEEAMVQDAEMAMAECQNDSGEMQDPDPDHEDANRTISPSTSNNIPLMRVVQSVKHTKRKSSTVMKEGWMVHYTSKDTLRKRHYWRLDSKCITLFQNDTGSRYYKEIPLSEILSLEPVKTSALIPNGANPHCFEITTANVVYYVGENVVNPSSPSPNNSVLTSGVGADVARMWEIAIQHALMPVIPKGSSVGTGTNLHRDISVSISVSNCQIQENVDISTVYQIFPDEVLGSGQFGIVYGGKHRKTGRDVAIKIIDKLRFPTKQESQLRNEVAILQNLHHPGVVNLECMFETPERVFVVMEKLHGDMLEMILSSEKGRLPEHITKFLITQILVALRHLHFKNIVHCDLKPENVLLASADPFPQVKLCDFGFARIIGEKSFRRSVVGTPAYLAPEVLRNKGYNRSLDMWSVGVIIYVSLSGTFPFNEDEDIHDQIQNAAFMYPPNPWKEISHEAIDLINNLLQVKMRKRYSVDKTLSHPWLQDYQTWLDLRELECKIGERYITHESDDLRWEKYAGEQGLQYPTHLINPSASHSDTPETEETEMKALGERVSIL
T3 sequence (Q96RR4 whole entry): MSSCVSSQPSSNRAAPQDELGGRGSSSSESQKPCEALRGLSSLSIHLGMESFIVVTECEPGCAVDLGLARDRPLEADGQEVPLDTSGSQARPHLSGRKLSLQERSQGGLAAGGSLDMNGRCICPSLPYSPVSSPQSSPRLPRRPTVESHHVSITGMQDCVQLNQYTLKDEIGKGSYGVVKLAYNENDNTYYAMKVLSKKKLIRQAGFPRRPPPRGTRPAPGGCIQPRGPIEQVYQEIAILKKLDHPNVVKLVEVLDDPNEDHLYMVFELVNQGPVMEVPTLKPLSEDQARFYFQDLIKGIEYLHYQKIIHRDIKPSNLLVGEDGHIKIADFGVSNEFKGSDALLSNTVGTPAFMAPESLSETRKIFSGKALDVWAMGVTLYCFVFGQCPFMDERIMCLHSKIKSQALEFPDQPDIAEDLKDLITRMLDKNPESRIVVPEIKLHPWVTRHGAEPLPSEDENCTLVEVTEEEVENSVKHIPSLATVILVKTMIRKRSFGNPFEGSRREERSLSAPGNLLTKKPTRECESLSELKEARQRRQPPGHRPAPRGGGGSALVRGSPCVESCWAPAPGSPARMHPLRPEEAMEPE
T5 sequence (P08069 whole entry): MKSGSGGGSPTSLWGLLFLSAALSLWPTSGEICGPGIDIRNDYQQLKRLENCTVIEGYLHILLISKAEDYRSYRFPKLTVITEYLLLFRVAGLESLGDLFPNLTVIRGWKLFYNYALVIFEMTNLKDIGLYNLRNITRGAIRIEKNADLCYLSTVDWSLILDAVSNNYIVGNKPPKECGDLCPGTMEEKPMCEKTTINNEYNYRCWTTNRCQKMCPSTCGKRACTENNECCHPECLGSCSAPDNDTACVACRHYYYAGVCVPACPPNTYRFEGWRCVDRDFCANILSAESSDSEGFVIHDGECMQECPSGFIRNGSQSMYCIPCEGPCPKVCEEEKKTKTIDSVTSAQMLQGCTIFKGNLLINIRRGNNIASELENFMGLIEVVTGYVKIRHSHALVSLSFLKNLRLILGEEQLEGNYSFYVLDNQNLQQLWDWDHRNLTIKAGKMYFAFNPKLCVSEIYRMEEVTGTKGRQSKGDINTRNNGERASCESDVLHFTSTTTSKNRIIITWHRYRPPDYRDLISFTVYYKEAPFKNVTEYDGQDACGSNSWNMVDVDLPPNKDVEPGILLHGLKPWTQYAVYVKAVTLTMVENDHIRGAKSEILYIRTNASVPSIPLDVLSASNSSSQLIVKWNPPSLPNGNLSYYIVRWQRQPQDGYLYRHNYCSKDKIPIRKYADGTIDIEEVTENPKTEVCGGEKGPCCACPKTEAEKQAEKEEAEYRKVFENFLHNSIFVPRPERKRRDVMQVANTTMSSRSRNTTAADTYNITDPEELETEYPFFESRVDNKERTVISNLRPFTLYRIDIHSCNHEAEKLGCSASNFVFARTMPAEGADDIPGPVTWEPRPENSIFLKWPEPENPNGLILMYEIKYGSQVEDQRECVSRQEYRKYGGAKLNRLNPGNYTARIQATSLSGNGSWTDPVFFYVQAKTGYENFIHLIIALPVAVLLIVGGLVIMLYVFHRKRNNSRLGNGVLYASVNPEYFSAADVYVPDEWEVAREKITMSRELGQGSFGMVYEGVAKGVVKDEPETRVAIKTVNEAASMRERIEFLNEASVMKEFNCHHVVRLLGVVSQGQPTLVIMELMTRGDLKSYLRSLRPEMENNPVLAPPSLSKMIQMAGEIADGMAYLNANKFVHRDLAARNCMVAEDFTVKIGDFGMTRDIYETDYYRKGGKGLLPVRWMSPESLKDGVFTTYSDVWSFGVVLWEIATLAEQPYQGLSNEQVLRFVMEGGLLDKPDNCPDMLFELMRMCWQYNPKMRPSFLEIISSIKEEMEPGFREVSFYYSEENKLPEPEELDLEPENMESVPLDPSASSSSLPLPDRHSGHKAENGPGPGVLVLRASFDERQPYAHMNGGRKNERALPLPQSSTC

With Cc1ncsc1-c1ccc(CNC(=O)[C@@H]2C[C@@H](O)CN2C(=O)[C@@H](NC(=O)C2(C#N)CC2)C(C)(C)C)cc1 [VH298] the remaining activity at 50 µM (AMPK (hum)) was 101%, the remaining activity at 50 µM (Aurora B) was 78% and the remaining activity at 50 µM (BTK) was 102%. For the same molecule, the remaining activity at 50 µM (CAMKKb) was 101%, the remaining activity at 50 µM (EPH-A2) was 107% and the remaining activity at 50 µM (GSK3b) was 107%. The remaining activity at 50 µM (IGF-1R) was 110%, the remaining activity at 50 µM (IRAK4) was 112% and the remaining activity at 50 µM (LKB1) was 105%. It also gave a remaining activity at 50 µM (Lck) of 104%, a remaining activity at 50 µM (MKK1) of 85% and a remaining activity at 50 µM (MSK1) of 87%. It also gave a remaining activity at 50 µM (MST2) of 98%, a remaining activity at 50 µM (PDK1) of 110% and a remaining activity at 50 µM (PKBa) of 54%. For the same molecule, the remaining activity at 50 µM (PKD1) was 108%, the remaining activity at 50 µM (PLK1) was 100% and the remaining activity at 50 µM (SYK) was 103%. The remaining activity at 50 µM (TAK1) was 111%, the remaining activity at 50 µM (TBK1) was 110% and the remaining activity at 50 µM (TTK) was 97%. The remaining binding at 50 µM (5-HT6 (h)) was 92%, the remaining binding at 50 µM (CB1 (h)) was 115% and the remaining binding at 50 µM (D1 (h)) was 103%. It also gave a remaining binding at 50 µM (H2 (h)) of 140%, a remaining binding at 50 µM (NTS1 (NT1) (h)) of 103% and a remaining binding at 50 µM (delta (DOP) (h)) of 65%.
